SMILES: CCCCCCCCCCCCCCCC(=O)O
- logP: 7.17

SMILES: CCCCCCCCCCCCCC(=O)O
- logP: 6.11

SMILES: CCCCC/C=C\C/C=C\CCCCCCCC(=O)O
- logP: 7.05

SMILES: CCCCC/C=C\C/C=C\C/C=C\C/C=C\CCCC(=O)O
- logP: 6.98

SMILES: CCCCCCC/C=C\CCCCCCC(=O)O
- logP: 6.58

SMILES: CCCCCCCCCCCCCCCCCCCC(=O)O
- logP: 9.29

SMILES: CC(C)OC(=O)c1ccccc1
- logP: 3.09

SMILES: CCCCCCCC/C=C\CCCCCCCC(=O)O
- logP: 7.64

SMILES: CCCCCC(=O)O
- logP: 1.87

SMILES: CC/C=C\C/C=C\C/C=C\CCCCCCCC(=O)O
- logP: 6.46

SMILES: CCCCCCCCCCCCCCCCCC(=O)O
- logP: 8.23

Reference: the SangsterLogP compilation
